Source: patent US7531500B2, “Preventing airway mucus production by administration of EGF-R antagonists” (The Regents of the University of California, priority 1998, dated 2009)

Key:
[1] = tested on: NCI-H292 cells; assay: MUC5AC mRNA and protein in NCI-H292 cells incubated with cigarette smoke solution (Example 7); assay type: cell-based, human; conditions: BIBX1522 10 μg/ml, AG1478 10 μM; for MUC5AC protein synthesis induced by cigarette smoke solution: AG1295 100 μM, A1 100 μM, DMSO 1%, SOD 300 U/ml
Protocol: NCI-H292 cells, a human pulmonary mucoepidermoid carcinoma cell line, were grown in RPMI 1640 medium containing 10% fetal bovine serum, penicillin (100 U/ml), streptomycin (100 μg/ml) and Hepes (25 mM) at 37° C. in a humidified 5% CO2 water-jacketed incubator. Either 6-well culture plates or 8-chamber slides were used to culture the cells. When confluent, cells were incubated for 1 hour with cigarette smoke solution. The cells were then washed and incubated with fresh medium alone. Experiments were terminated at preselected times (for mRNA, 6 hours and 12 hours; for protein, 24 hours). As controls, cells were incubated with medium alone for same time periods. […] The effects of a selective inhibitor of platelet-derived growth factor receptor tyrosine kinase (tyrphostin AG1295, 100 μM, Calbiochem), and a negative control for tyrphostins (tyrphostin A1, 100 μM, Calbiochem) were also examined. The role of reactive oxygen species was examined using a scavenger of oxygen free radicals DMSO (1%, Sigma), or superoxide dismutase (SOD, 300 U/ml, Sigma).
In situ hybridization was performed using a human EGFR probe, which contains a 350-bp cDNA fragment of the human EGFR gene (pTRI-EGFR-human probe template, Ambion, Austin, Tex.) and a human MUC5AC probe, which contains a 298-bp cDNA fragment of the human MUC5AC gene, The 350-bp cDNA human EGFR was subcloned into pBluescript II SK-vector at Kpn I and EcoR I sites. This pBluescript was used to generate human EGFR antisense and sense probes. Hybridization was performed as described previously. Lou et al. (1998) Am. J. Respir. Crit. Care Med. 157:1927-1934. In brief, the cells grown on the 8-chamber slides were fixed in 4% paraformaldehyde, rehydrated in 0.5×SSC, and then acetylated in triethanolamine and acetic anhydride. Hybridization was carried out with 2500-4000 cpm/μl of antisense or sense probe in 50% deionized formamide, 0.3 M NaCl, 20 mM Tris, 5 mM EDTA, 1× Denhardt's solution, 20 mM dithiothreitol, 10% dextran sulfate, 0.5 mg/ml yeast tRNA, and 0.5 mg/ml sonicated salmon sperm DNA at 58° overnight. Posthybridization treatment consisted of washes with 2×SSC, 1 mM EDTA, 10 mM β-mercaptoethanol at room temperature, incubation with RNase solution (20 μg/ml) for 30 min at room temperature, and further washes in 0.1×SSC, 1 mM EDTA, 10 mM β-mercaptoethanol at 55° C. for 2 hours and then in 0.5×SSC at room temperature for 20 minutes. Specimens were dehydrated, air-dried, and covered with Kodak NBT nuclear track emulsion (Eastman Kodak, Rochester, N.Y.) for autoradiography. After exposure for 7 to 21 days at 4° C., the slides were developed, fixed, and counterstained with hematoxylin.
MUC5AC protein was measured as described previously. Takeyama et al. (1999) Proc. Natl. Acad. Sci. USA 96:3081-3086. In brief, cell lysates were prepared with PBS at multiple dilutions, and 50 μl of each sample was incubated with bicarbonate-carbonate buffer (50 μl) at 40° C. in a 96-well plate (Maxisorp Nunc, Fisher Scientific, Santa Clara, Calif.), until dry. Plates were washed three times with PBS and blocked with 2% bovine serum albumin, fraction V (Sigma) for 1 hour at room temperature. Plates were again washed three times with PBS and then incubated with 50 μl of MUC5AC mAb (1:1 00) that was diluted with PBS containing 0.05% Tween 20. After 1 hour, the wells were washed three times with PBS, and 100 μl horseradish peroxidase-goat anti-mouse IgG conjugate (1:10,000) was dispensed into each well. After 1 hour, plates were washed three times with PBS. Color reaction was developed with 3,3′,5,5′-tetramethylbenzidine (TMB) peroxidase solution (Kirkegaard & Perry Laboratories, Gaithersburg, Md.) and stopped with 2N H2S04. Absorbance was read at 450 nm.

[2] = tested on: NCI-H292 cells; assay: Immunoassay of MUC5AC protein in NCI-H292 cells (Example 2); assay type: cell-based, human; conditions: for MUC5AC protein synthesis induced by the supernatant of activated neutrophils: BIBX1522 10 μg/ml, AG1478 10 μM, AG1295 100 μM, A1 100 μM, 30 min pretreatment, antibodies preincubated with supernatant; for MUC5AC synthesis by supernatant of activated neutrophils, cigarette smoke and H2O2 / MUC5AC protein synthesis by TGFα: DMSO 1%, SOD 300 U/ml; for MUC5AC synthesis by supernatant of activated neutrophils, cigarette smoke and H2O2: DMTU 50 mM
Protocol: Cell Culture. NCI-H292 cells, a human pulmonary mucoepidermoid carcinoma cell line, were grown in RPMI 1640 medium containing 10% fetal bovine serum, penicillin (100 U/ml), streptomycin (100 μg/ml) and Hepes (25 mM) at 37° C. in a humidified 5% CO2, water-jacketed incubator. Either 6-well culture plates or 8-chamber slides were used to culture the cells. […] The cells were then washed and incubated with fresh medium alone. Experiments were terminated at preselected times (for mRNA, 6 h and 12 h; for protein, 24 h). As controls, cells were incubated with medium alone for same time periods. […] In inhibition studies with blocking antibodies to EGF-R ligands, the supernatants were pretreated with anti-TGFα antibody (Calbiochem) or anti-EGF antibody for 30 min and then added to NCI-H292 cells. The role of oxygen free radicals was examined using scavengers of oxygen free radical DMSO (1%, Sigma), 1,3-dimethyl-2-thiourea (DMTU, 50 mM, Sigma), or superoxide dismutase (SOD, 300 U/ml, Sigma).
Preparation of Cigarette Smoke Solution. Research cigarettes (code2R1, produced for the University of Kentucky Tobacco and Health Research Foundation) were used in the study. Cigarette smoke solution was prepared as previously described (Dusser et al. (1989) J. Clin. Invest. 84:900-906). In brief, cigarette smoke was withdrawn into a polypropylene syringe (35 ml) at a rate of one puff/min (10 times) and bubbled slowly into 20 ml of RPM11640 containing 50 mM Hepes buffer. The smoke solution was then titrated to pH 7,4 and used immediately after preparation.
Immunoassay of MUC5AC Protein. MUC5AC protein was measured as described above. In brief, cell lysates were prepared with PBS at multiple dilutions, and 50 μl of each sample was incubated with bicarbonate-carbonate buffer (50 μl) at 40° C. in a 96-well plate (Maxisorp Nunc, Fisher Scientific, Santa Clara, Calif.), until dry. Plates were washed three times with PBS and blocked with 2% BSA (fraction V, Sigma) for 1 h at room temperature. Plates were again washed three times with PBS and then incubated with 50 μl of mouse monoclonal MUC5AC antibody (1:100) that was diluted with PBS containing 0.05% Tween 20. After 1 h, the wells were washed three times with PBS, and 100 μl horseradish peroxidase-goat anti-mouse IgG conjugate (1:10,000, Sigma) was dispensed into each well. After 1 h, plates were washed three times with PBS. Color reaction was developed with TMB peroxidase solution (Kirkegaard & Perry Laboratories, Gaithersburg, Md.) and stopped with 2N H2SO4. Absorbance was read at 450 nm.

[3] = biological target: EGFR (Homo sapiens, UniProt P00533); assay: Immunoprecipitation of EGF-R and immunoblotting for tyrosine phosphorylation in NCI-H292 cells; assay type: cell-based; set-up: These cells express EGF-R constitutively; endogenous in cells; host or cells: NCI-H292 (human pulmonary mucoepidermoid carcinoma)
Protocol: Immunoprecipitation for EGF-R Protein and Immunoblotting for Tyrosine Phosphorylation. Cells were serum-starved for 24 h and then stimulated with TGFα, H2O2, or the supernatant of activated neutrophils for 15 min. After stimulation, cells were lysed and incubated for 30 min in an orbital shaker at 4° C. To remove insoluble material, cell lysates were centrifuged at 14,000 rpm for 5 min at 4° C. Aliquots of supernatants containing equal amounts of protein were immunoprecipitated with anti-EGF receptor antibody (polyclonal, Ab4, Calbiochem) and 20 μl of protein A-agarose (Santa Cruz) for 2 h at 4° C. Precipitates were washed three times with 0.5 ml of lysis buffer, suspended in SDS sample buffer, and boiled for 5 min. Proteins were separated by SDS-PAGE in 8.0% acrylamide gel. The resulting gel was equilibrated in the transfer buffer: 25 mM Tris-HCl, 192 mM glycine, 20% (vol/vol) methanol, pH 8.3. The proteins were then transferred electrophoretically to nitrocellulose membranes (0.22 μm), blocked with 5% fat-free skimmed milk in PBS containing 0.05% Tween 20 overnight and then incubated with monoclonal anti-phosphotyrosine antibody (1:100,Santa Cruz) for 1 h. Bound antibody was visualized according to a standard protocol for the avidin-biotin-alkaline phosphatase complex method (ABC kit, Vector Laboratories).

Chain of EGFR (P00533 25-1210): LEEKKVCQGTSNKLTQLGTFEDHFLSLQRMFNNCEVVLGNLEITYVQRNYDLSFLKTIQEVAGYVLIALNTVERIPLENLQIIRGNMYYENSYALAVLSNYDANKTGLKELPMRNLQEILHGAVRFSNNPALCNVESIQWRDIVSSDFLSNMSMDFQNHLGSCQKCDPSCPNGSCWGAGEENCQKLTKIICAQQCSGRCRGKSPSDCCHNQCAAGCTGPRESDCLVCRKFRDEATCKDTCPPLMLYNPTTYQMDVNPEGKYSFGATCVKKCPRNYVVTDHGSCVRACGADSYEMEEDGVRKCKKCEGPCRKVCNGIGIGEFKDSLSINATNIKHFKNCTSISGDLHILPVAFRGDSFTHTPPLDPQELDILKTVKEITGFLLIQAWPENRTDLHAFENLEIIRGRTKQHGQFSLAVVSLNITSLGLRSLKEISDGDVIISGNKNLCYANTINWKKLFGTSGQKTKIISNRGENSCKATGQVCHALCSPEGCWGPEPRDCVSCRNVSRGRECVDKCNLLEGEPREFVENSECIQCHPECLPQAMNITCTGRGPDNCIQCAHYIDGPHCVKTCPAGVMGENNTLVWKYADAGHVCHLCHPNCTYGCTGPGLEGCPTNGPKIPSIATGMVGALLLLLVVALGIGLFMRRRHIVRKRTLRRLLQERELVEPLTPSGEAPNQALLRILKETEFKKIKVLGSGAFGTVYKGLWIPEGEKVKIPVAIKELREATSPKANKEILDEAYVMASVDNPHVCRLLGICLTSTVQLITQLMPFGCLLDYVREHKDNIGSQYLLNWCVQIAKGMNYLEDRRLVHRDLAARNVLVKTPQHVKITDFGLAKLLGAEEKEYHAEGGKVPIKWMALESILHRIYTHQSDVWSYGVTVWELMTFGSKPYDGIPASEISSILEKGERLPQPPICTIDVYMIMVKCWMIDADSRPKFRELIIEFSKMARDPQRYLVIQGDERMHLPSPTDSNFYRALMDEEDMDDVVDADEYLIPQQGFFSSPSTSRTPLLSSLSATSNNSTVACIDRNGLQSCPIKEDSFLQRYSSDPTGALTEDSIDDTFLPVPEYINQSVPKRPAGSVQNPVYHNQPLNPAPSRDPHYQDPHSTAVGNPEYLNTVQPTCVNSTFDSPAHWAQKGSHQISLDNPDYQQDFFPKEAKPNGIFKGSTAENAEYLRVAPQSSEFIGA

TGFα-induced EGF-R tyrosine phosphorylation [3]	supernatant-, cigarette smoke-, and H2O2-induced EGF-R tyrosine phosphorylation [3]	Compound	MUC5AC protein synthesis induced by cigarette smoke solution [1]	MUC5AC protein synthesis induced by the supernatant of activated neutrophils [2]	MUC5AC synthesis induced by cigarette smoke [2]	MUC5AC synthesis by supernatant of activated neutrophils, cigarette smoke and H2O2 [2]	MUC5AC protein synthesis by TGFα [2]	MUC5AC mRNA expression induced by cigarette smoke solution [1]	increase in MUC5AC protein synthesis induced by all stimuli (cigarette smoke, H2O2, TGFα) ([2]; pretreatment 10 μM)
		Cc1cc2ncc(-c3ccccc3)nc2cc1C [AG1295]	without effect	without effect					
		superoxide dismutase [SOD]	inhibited significantly		partially inhibited	significantly inhibited	unaffected		
had no effect	inhibited	C[S+](C)[O-] [DMSO]	inhibited significantly		partially inhibited	significantly inhibited	unaffected		
		COc1cc2ncnc(Nc3cccc(Cl)c3)c2cc1OC [AG1478]	prevented	prevented				prevented	prevented
